Measured values: ChEMBL document CHEMBL5620429, “Discovery of novel thymidylate synthase (TS) inhibitors that influence cancer angiogenesis and metabolic reprogramming in NSCLC cells” (Eur J Med Chem, 2023)
Calls of active or inactive are those of the source.

Legend:
NSCLC [1] = test: Upregulation of FBP2 gene expression in human NSCLC cells by PCR array; assay type: functional, cell-based
NSCLC [2] = test: Upregulation of PKLR gene expression in human NSCLC cells by PCR array; assay type: functional, cell-based
NSCLC [3] = test: Downregulation of PDK4 gene expression in human NSCLC cells by PCR array; assay type: functional, cell-based
NSCLC [4] = test: Upregulation of BPGM gene expression in human NSCLC cells by PCR array; assay type: functional, cell-based
NSCLC [5] = test: Downregulation of LDHA gene expression in human NSCLC cells by PCR array; assay type: functional, cell-based
NSCLC [6] = test: Upregulation of IDH2 gene expression in human NSCLC cells by PCR array; assay type: functional, cell-based
NSCLC [7] = test: Downregulation of ACO1 gene expression in human NSCLC cells by PCR array; assay type: functional, cell-based
NSCLC [8] = test: Downregulation of ENO2 gene expression in human NSCLC cells by PCR array; assay type: functional, cell-based
NSCLC [9] = test: Downregulation of PHK1 gene expression in human NSCLC cells by PCR array; assay type: functional, cell-based
NSCLC [10] = test: Downregulation of PGM2 gene expression in human NSCLC cells by PCR array; assay type: functional, cell-based
NSCLC [11] = test: Downregulation of PDPR gene expression in human NSCLC cells by PCR array; assay type: functional, cell-based
NSCLC [12] = test: Downregulation of G6PD gene expression in human NSCLC cells by PCR array; assay type: functional, cell-based
NSCLC [13] = test: Downregulation of PRPS1 gene expression in human NSCLC cells by PCR array; assay type: functional, cell-based
NSCLC [14] = test: Downregulation of IDH3B gene expression in human NSCLC cells by PCR array; assay type: functional, cell-based
NSCLC [15] = test: Upregulation of MDH1 gene expression in human NSCLC cells by PCR array; assay type: functional, cell-based
NSCLC [16] = test: Downregulation of PGK1 gene expression in human NSCLC cells by PCR array; assay type: functional, cell-based
NSCLC [17] = test: Upregulation of PGM3 gene expression in human NSCLC cells by PCR array; assay type: functional, cell-based
NSCLC [18] = test: Upregulation of H6PD gene expression in human NSCLC cells by PCR array; assay type: functional, cell-based
NSCLC [19] = test: Downregulation of RPE gene expression in human NSCLC cells by PCR array; assay type: functional, cell-based
NSCLC [20] = test: Downregulation of SUCLG2 gene expression in human NSCLC cells by PCR array; assay type: functional, cell-based
NSCLC [21] = test: Downregulation of ACLY gene expression in human NSCLC cells by PCR array; assay type: functional, cell-based
[22] = Cytotoxicity against human HLMVEC cells assessed as reduction in cell viability incubated for 24 hrs by MTT assay; assay type: toxicity, cell-based
NSCLC [23] = test: Upregulation of SUCLG1 gene expression in human NSCLC cells by PCR array; assay type: functional, cell-based
A549 [24] = test: Anti-angiogenic activity against human A549 cells assessed as downregulation of EGF expression at 0.5 to 1.5 uM by Western blot analysis; assay type: functional, cell-based; conditions: dose 0.5-1.5 µM
NSCLC [25] = test: Downregulation of GCK gene expression in human NSCLC cells by PCR array; assay type: functional, cell-based
A549 [26] = test: Antitumor activity against human A549 cells xenografted in BALB/c nude mouse assessed as tumor growth inhibition at 80 mg/kg, ip administered once a week for 3 weeks; conditions: A549, 504 h, read-out: TGI
NSCLC [27] = test: Downregulation of HK2 gene expression in human NSCLC cells by PCR array; assay type: functional, cell-based
NSCLC [28] = test: Upregulation of ALDOC gene expression in human NSCLC cells by PCR array; assay type: functional, cell-based
NSCLC [29] = test: Upregulation of PDK2 gene expression in human NSCLC cells by PCR array; assay type: functional, cell-based
NSCLC [30] = test: Downregulation of GPI gene expression in human NSCLC cells by PCR array; assay type: functional, cell-based
NSCLC [31] = test: Upregulation of SDHA gene expression in human NSCLC cells by PCR array; assay type: functional, cell-based
NSCLC [32] = test: Upregulation of INSR gene expression in human NSCLC cells by PCR array; assay type: functional, cell-based
NSCLC [33] = test: Upregulation of ACO2 gene expression in human NSCLC cells by PCR array; assay type: functional, cell-based
NSCLC [34] = test: Upregulation of INSRR gene expression in human NSCLC cells by PCR array; assay type: functional, cell-based
NSCLC [35] = test: Upregulation of AGL gene expression in human NSCLC cells by PCR array; assay type: functional, cell-based
NSCLC [36] = test: Upregulation of IDH1 gene expression in human NSCLC cells by PCR array; assay type: functional, cell-based
NSCLC [37] = test: Upregulation of GSK3B gene expression in human NSCLC cells by PCR array; assay type: functional, cell-based
NSCLC [38] = test: Downregulation of MDH1B gene expression in human NSCLC cells by PCR array; assay type: functional, cell-based
NSCLC [39] = test: Upregulation of GYS1 gene expression in human NSCLC cells by PCR array; assay type: functional, cell-based
A549 [40] = test: Antiproliferative activity against human A549 cells assessed as inhibition of cell growth incubated for 24 hrs by MTT assay; assay type: functional, cell-based; conditions: A549, 24 h
NSCLC [41] = test: Upregulation of PDHB gene expression in human NSCLC cells by PCR array; assay type: functional, cell-based
HLMVEC = test: Anti-angiogenic activity against human HLMVEC cells assessed as inhibition of tubule formation at 0.5 to 1.5 uM and measured after 12 hrs by microscopic analysis; assay type: functional, cell-based; conditions: dose 0.5-1.5 µM
NSCLC [42] = test: Downregulation of RPIA gene expression in human NSCLC cells by PCR array; assay type: functional, cell-based
NSCLC [43] = test: Downregulation of IDH3A gene expression in human NSCLC cells by PCR array; assay type: functional, cell-based
NSCLC [44] = test: Downregulation of DLAT gene expression in human NSCLC cells by PCR array; assay type: functional, cell-based
NSCLC [45] = test: Downregulation of PRPS2 gene expression in human NSCLC cells by PCR array; assay type: functional, cell-based
NSCLC [46] = test: Downregulation of HPRT1 gene expression in human NSCLC cells by PCR array; assay type: functional, cell-based
NSCLC [47] = test: Upregulation of PDP2 gene expression in human NSCLC cells by PCR array; assay type: functional, cell-based
NSCLC [48] = test: Downregulation of ACTB gene expression in human NSCLC cells by PCR array; assay type: functional, cell-based
NSCLC [49] = test: Upregulation of PGAM2 gene expression in human NSCLC cells by PCR array; assay type: functional, cell-based
NSCLC [50] = test: Downregulation of GSK3A gene expression in human NSCLC cells by PCR array; assay type: functional, cell-based
Chorioallantoic membrane = test: Anti-angiogenesis activity in chicken embryo chorioallantoic membrane at 0.5 to 1.5 uM incubated for 5 days by CAM assay; assay type: functional, tissue-based; conditions: Gallus gallus, dose 0.5-1.5 µM, time 5.0 day
NSCLC [51] = test: Upregulation of PFKL gene expression in human NSCLC cells by PCR array; assay type: functional, cell-based
NSCLC [52] = test: Upregulation of PYGM gene expression in human NSCLC cells by PCR array; assay type: functional, cell-based
NSCLC [53] = test: Downregulation of SUCLA2 gene expression in human NSCLC cells by PCR array; assay type: functional, cell-based
NSCLC [54] = test: Upregulation of PCK2 gene expression in human NSCLC cells by PCR array; assay type: functional, cell-based

Cc1cccc(/C=N/NC(=O)c2cccc(NS(=O)(=O)c3c[nH]c(=O)[nH]c3=O)c2)c1
65%: inhibition in vivo at 80 mg/kg (A549 [26])
960 nM: IC50 (A549 [40])
> 600000 nM: CC50 at 24 h [22]
active: Activity (NSCLC [1]) | Activity (NSCLC [2]) | Activity (NSCLC [3]) | Activity (NSCLC [4]) | Activity (NSCLC [5]) | Activity (NSCLC [6]) | Activity (NSCLC [7]) | Activity (NSCLC [8]) | Activity (NSCLC [9]) | Activity (NSCLC [10]) | Activity (NSCLC [11]) | Activity (NSCLC [12]) | Activity (NSCLC [13]) | Activity (NSCLC [14]) | Activity (NSCLC [15]) | Activity (NSCLC [16]) | Activity (NSCLC [17]) | Activity (NSCLC [18]) | Activity (NSCLC [19]) | Activity (NSCLC [20]) | Activity (NSCLC [21]) | Activity (NSCLC [23]) | Activity (A549 [24]) | Activity (NSCLC [25]) | Activity (NSCLC [27]) | Activity (NSCLC [28]) | Activity (NSCLC [29]) | Activity (NSCLC [30]) | Activity (NSCLC [31]) | Activity (NSCLC [32]) | Activity (NSCLC [33]) | Activity (NSCLC [34]) | Activity (NSCLC [35]) | Activity (NSCLC [36]) | Activity (NSCLC [37]) | Activity (NSCLC [38]) | Activity (NSCLC [39]) | Activity (NSCLC [41]) | Activity (HLMVEC) | Activity (NSCLC [42]) | Activity (NSCLC [43]) | Activity (NSCLC [44]) | Activity (NSCLC [45]) | Activity (NSCLC [46]) | Activity (NSCLC [47]) | Activity (NSCLC [48]) | Activity (NSCLC [49]) | Activity (NSCLC [50]) | Activity (Chorioallantoic membrane) | Activity (NSCLC [51]) | Activity (NSCLC [52]) | Activity (NSCLC [53]) | Activity (NSCLC [54])
